Read-outs that look alike come from different tables or passages of the source.
Legend:
[1] = cited from earlier work; for physical stability: forms disclosed in WO 99/00380
[2] = hygroscopicity of crystalline forms of omeprazole sodium; type: physicochemical; conditions: forms obtained by the processes of the invention
[3] = stability of crystalline forms of omeprazole sodium
[4] = Form-A prepared according to Example 3 of WO99/00380, dried substance with one strongly bound water molecule, normal conditions; cited from earlier work

hygroscopicity [2] | Structure (SMILES) | physical stability [1] | other results
 | COc1ccc2[n-]c([S+]([O-])Cc3ncc(C)c(OC)c3C)nc2c1.[Na+] (stereo not drawn) [Form-X, omeprazole sodium] | physically unstable | 
less hygroscopic than Form A | COc1ccc2[n-]c([S+]([O-])Cc3ncc(C)c(OC)c3C)nc2c1.[Na+] (stereo not drawn) [Form C, omeprazole sodium] |  | 
 | COc1ccc2[n-]c([S+]([O-])Cc3ncc(C)c(OC)c3C)nc2c1.[Na+] (stereo not drawn) [Form-B, omeprazole sodium] | physically stable | 
non-hydroscopic | COc1ccc2[n-]c([S+]([O-])Cc3ncc(C)c(OC)c3C)nc2c1.[Na+] (stereo not drawn) [Form-A, omeprazole sodium] |  | thermodynamic stability ([3]; Form-A obtained by the process of the invention, compared with prior art processes): thermodynamically more stable; stability (kind not specified) ([3]; forms obtained by the processes of the invention): stable; hygroscopicity [4]: very hygroscopic; thermodynamic stability ([1]; Form-A produced according to Example 3 of WO 99/00380): thermodynamically unstable
non-hygroscopic | COc1ccc2[n-]c([S+]([O-])Cc3ncc(C)c(OC)c3C)nc2c1.[Na+] (stereo not drawn) [Form D, omeprazole sodium] |  | 
